From PMC4438431 (2015)

How the values were obtained:
Test in all cases: CD titration, Hyperquad 2003 fit
[1] = test system: c-mycTGA-de (DNA, G4) GGGTGGGGAGGGTGGGGAA; settings: K+ (17 mM K2HPO4/KH2PO4); pH 7.40, 5% DMSO, 20 °C; site 1 of 2, stepwise 1:1; second G4 2.8 × 10^2 M^-1
[2] = test system: c-myc1245 (DNA, G4) TGAGGGTGGGTTTTTAGGGTGGGGAA; settings: K+ (17 mM K2HPO4/KH2PO4); pH 7.40, 5% DMSO, 20 °C; conflict: Figure S38 legend prints (5.1 ± 0.2) × 10^4
[3] = test system: c-kitG20T (DNA, G4) AGGGAGGGCGCTGGGAGGATGG; settings: K+ (17 mM K2HPO4/KH2PO4); pH 7.40, 5% DMSO, 20 °C; site 1 of 2, stepwise 1:1; second G4 1.1 × 10^5 M^-1

Ka [1]: (5.1 ± 0.2) × 10^4 M^-1
Ka [2]: (1.3 ± 0.05) × 10^6 M^-1
Ka1 [3]: (9.4 ± 0.4) × 10^4 M^-1
SMILES: Cn1c2cccc(n2)n(C)c2cccc(n2)n(C)c2cccc(n2)n(C)c2cccc(n2)n(C)c2cccc(n2)n(C)c2cccc1n2
